# Experimental data: publication PMC3265452 (PLoS Neglected Tropical Diseases, 2012)
# Where a name gives a salt, the structure may show the parent alone.
# Biological target: T1, AaDOP2 (Aedes aegypti, UniProt H6D5H2)
# Test: AaDOP2 antagonist screen of the LOPAC1280 library (HEK-CRELuc-Aadop2 cells, luminescence)
# Type: cell-based
# Details: not given
# T1 sequence (H6D5H2 1-476): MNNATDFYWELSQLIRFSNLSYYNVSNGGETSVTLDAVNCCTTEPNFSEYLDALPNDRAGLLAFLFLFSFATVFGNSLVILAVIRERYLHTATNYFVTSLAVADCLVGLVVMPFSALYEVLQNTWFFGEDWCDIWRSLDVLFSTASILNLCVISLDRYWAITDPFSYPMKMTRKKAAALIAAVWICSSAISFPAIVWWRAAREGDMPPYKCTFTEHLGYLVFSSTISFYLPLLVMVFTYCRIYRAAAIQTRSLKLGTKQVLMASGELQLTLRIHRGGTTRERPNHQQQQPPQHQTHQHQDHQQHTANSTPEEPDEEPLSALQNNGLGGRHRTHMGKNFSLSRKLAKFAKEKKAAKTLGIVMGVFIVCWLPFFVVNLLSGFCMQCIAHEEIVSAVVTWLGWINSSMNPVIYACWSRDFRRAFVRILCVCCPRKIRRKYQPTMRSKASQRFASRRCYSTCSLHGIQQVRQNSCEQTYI
row,Compound,"Compound effect (percent receptor signaling in presence of test compound, relative lux units relative to the SCH23390 control)"
1,"NC[C@H](O)c1ccc(O)c(O)c1 [Compound 106, L(-)-Norepinephrine bitartrate]",115
2,"N[C@@H](CCC(=O)N[C@@H](CSN=O)C(=O)NCC(=O)O)C(=O)O [Compound 850, S-Nitrosoglutathione]",100
3,"Cc1cc(NC(=O)Nc2ccc3c(ccn3C)c2)sn1 [Compound 274, SB 204741]",95
4,"CC(=O)NCCc1c[nH]c2ccccc12 [Compound 83, N-Acetyltryptamine]",42
5,"C#CCN1C(C)=C(C(=O)OC)C(c2cccc([N+](=O)[O-])c2)C(C(=O)OCC)=C1C (stereo not shown) [Compound 741, MRS 1845]",101
6,"CC(=O)OCC1=C(C(=O)O)N2C(=O)[C@@H](NC(=O)Cc3cccs3)[C@H]2SC1 [Compound 261, Cephalothin sodium]",92
7,"COc1ccccc1CNCCCCCCNCCCCCCCCNCCCCCCNCc1ccccc1OC [Compound 815, Methoctramine tetrahydrochloride]",66
8,"N[C@H](CCCCCP(=O)(O)O)C(=O)O [Compound 136, D(-)-2-Amino-7-phosphonoheptanoic acid]",102
9,"COC(=O)c1c(C)[nH]c(C)c1C(=O)c1ccccc1Cc1ccccc1 [Compound 543, FPL 64176]",86
10,"CN(C)C(=O)Oc1ccc[n+](C)c1 [Compound 1000, Pyridostigmine bromide]",106
11,"CC(C)N(CCC(C(N)=O)(c1ccccc1)c1ccccn1)C(C)C (stereo not shown) [Compound 402, Disopyramide phosphate]",104
12,"O=[N+]([O-])c1cccc2c(Br)n[nH]c12 [Compound 161, 3-Bromo-7-nitroindazole]",83
13,"O=C(CCc1ccc(O)cc1)c1c(O)cc(O)cc1O [Compound 974, Phloretin]",99
14,"NC(CO)C(=O)NNCc1ccc(O)c(O)c1O (stereo not shown) [Compound 184, Benserazide hydrochloride]",94
15,"COc1cc(OC)c(C=C2C(O)=Nc3ccccc32)c(OC)c1 [Compound 1014, IC 261]",78
16,"NC(Cc1cc(O)c(O)cc1O)C(=O)O (racemic) [Compound 584, 6-Hydroxy-DL-DOPA]",101
17,"NC[C@@H]1O[C@H](O[C@H]2[C@@H](O)[C@H](O[C@@H]3[C@@H](O)[C@H](N)C[C@H](N)[C@H]3O[C@H]3O[C@H](CO)[C@@H](O)[C@H](O)[C@H]3N)O[C@@H]2CO)[C@H](N)[C@@H](O)[C@@H]1O [Compound 994, Paromomycin sulfate]",96

row,Compound,"Compound effect (percent receptor signaling in presence of test compound, relative lux units relative to the SCH23390 control)"
1,"CC1=C[C@@H]2c3cccc4[nH]cc(c34)C[C@H]2N(C)C1 [Compound 141, Agroclavine]",98
2,"CCc1cccc2c3c([nH]c12)C(CC)(CC(=O)O)OCC3 (stereo not shown) [Compound 472, Etodolac]",98
3,"Br.COc1ccc(-c2ccc(=N)n(CCCC(=O)O)n2)cc1 [Compound 1132, SR-95531]",101
4,"CCN(CC)CCNC(=O)c1ccc(N)cc1 [Compound 996, Procainamide hydrochloride]",100
5,"Cc1ccc(C(=O)Nc2ccc(S(=O)(=O)O)c3cc(S(=O)(=O)O)cc(S(=O)(=O)O)c23)cc1NC(=O)c1cccc(NC(=O)Nc2cccc(C(=O)Nc3cc(C(=O)Nc4ccc(S(=O)(=O)O)c5cc(S(=O)(=O)O)cc(S(=O)(=O)O)c45)ccc3C)c2)c1 [Compound 1135, Suramin hexasodium]",112
6,"CC[N+](CC)(CC)CC [Compound 1159, Tetraethylammonium chloride]",108
7,"O=C(O)CN(CCOCCOCCN(CC(=O)O)CC(=O)O)CC(=O)O [Compound 492, Ethylene glycol-bis(2-aminoethylether)-N,N,N',N'-tetraacetic acid]",121
8,"CC(C[N+](C)(C)C)OC(N)=O (stereo not shown) [Compound 271, Bethanechol chloride]",116
9,"CC1COc2c(N3CCN(C)CC3)c(F)cc3c(=O)c(C(=O)O)cn1c23 (stereo not shown) [Compound 907, Ofloxacin]",92
10,"CC1CCN(CC[C@H]2CCCN2S(=O)(=O)c2cccc(O)c2)CC1.Cl [Compound 1106, SB 269970 hydrochloride]",98
11,"CC(C)(C)c1ccc(S(=O)(=O)/C=C/C#N)cc1 [Compound 179, Bay 11-7085]",76
12,"CC(C)Cc1ccc(C(C)C(=O)O)cc1 (racemic) [Compound 646, (±)-Ibuprofen]",98
13,"CC(=O)Oc1cc(C(C)C)c(OCCN(C)C)cc1C [Compound 773, Moxisylyte hydrochloride]",33
14,"COc1ccc2c(c1)c(CC(=O)O)c(C)n2C(=O)c1ccccc1 [Compound 155, 1-benzoyl-5-methoxy-2-methylindole-3-acetic acid]",105
15,"CC(CCc1ccccc1)NC(C)C(O)c1ccc(O)cc1 (stereo not shown) [Compound 884, Nylidrin hydrochloride]",86
16,"COc1ccc2c(c1)c(CC(=O)O)c(C)n2Cc1ccc(F)cc1 [Compound 515, 1-(4-Fluorobenzyl)-5-methoxy-2-methylindole-3-acetic acid]",103

# Same assay, conditions: 10 µM compound, 300 nM dopamine, 2 hr; hit = compound effect <20
row,Compound,"Compound effect (percent receptor signaling in presence of test compound, relative lux units relative to the SCH23390 control)"
1,"CCN(CC)CCCCCCCCOC(=O)c1cc(OC)c(OC)c(OC)c1.Cl [Compound 11, TMB-8 hydrochloride]",98%
2,"CCN1CCC[C@H]1CNC(=O)c1c(O)c(Cl)cc(Cl)c1OC.O=C(O)C(O)C(O)C(=O)O (racemic) [Compound 1069, S(+)-Raclopride L-tartrate]",76%
3,"COc1cc2c(cc1OC)[C@@H](c1ccccc1)CN(C)CC2.O=C(O)/C=C\C(=O)O [Compound 1138, R(-)-SCH-12679 maleate]",36%
4,"COc1ccccc1N1CCN(CCN2C(=O)CC3(CCCC3)CC2=O)CC1.Cl.Cl [Compound 205, BMY 7378 dihydrochloride]",102%
5,TFPI hydrochloride [Compound 1197],96%
6,"MDL 26,630 trihydrochloride [Compound 828]",93%
7,"O=C(O)CC[C@@H](C(=O)O)N1C(=O)c2ccccc2C1=O [Compound 928, L-Glutamic acid, N-phthaloyl-]",106%
8,"CCCCCCCCCC(=O)NC(CN1CCOCC1)[C@H](O)c1ccccc1.Cl (mixture of isomers) [Compound 968, (±)-threo-1-Phenyl-2-decanoylamino-3-morpholino-1-propanol hydrochloride]",85%
9,"CC(C)C[C@H](NP(=O)([O-])O[C@H]1O[C@H](C)[C@@H](O)[C@H](O)[C@@H]1O)C(=O)N[C@@H](Cc1c[nH]c2ccccc12)C(=O)[O-].[Na+].[Na+] [Compound 1054, Phosphoramidon disodium]",104%
10,"CC1=C(CC(=O)O)c2cc(F)ccc2/C1=C\c1ccc(S(C)(=O)=O)cc1 [Compound 1080, Sulindac sulfone]",122%
11,"Cc1ccc(S(=O)(=O)N[C@@H](Cc2ccccc2)C(=O)CCl)cc1 [Compound 1172, N-p-Tosyl-L-phenylalanine chloromethyl ketone]",83%

# Biological target: T1, AaDOP2
# Test: cell-based
# Details: not given
row,Compound,EC50
1,"NC[C@H](O)c1ccc(O)c(O)c1 [Compound 106, L(-)-Norepinephrine bitartrate]",≥ 10000 nM
2,"NCCc1c[nH]cn1 [Compound 596, Histamine dihydrochloride]",≥ 10000 nM
3,Oc1cc2c(cc1O)C(c1ccccc1)CNCC2 (stereo not shown) [SKF 38393],≥ 10000 nM
4,"CNC[C@H](O)c1ccc(O)c(O)c1 [Compound 491, (-)-Epinephrine bitartrate]",≥ 10000 nM
5,"NCCc1ccc(O)cc1 [Compound 1162, 4-Hydroxyphenethylamine hydrochloride]",≥ 10000 nM
6,"Oc1cc2c(cc1O)[C@H]1c3ccccc3CN[C@@H]1CC2 (racemic) [Dihydrexidine, dihydrexidine]",290 ± 54 nM

# Biological target: AaDOP1 (Aedes aegypti, UniProt H6D5H1)
# Sequence (H6D5H1 entry or part of it): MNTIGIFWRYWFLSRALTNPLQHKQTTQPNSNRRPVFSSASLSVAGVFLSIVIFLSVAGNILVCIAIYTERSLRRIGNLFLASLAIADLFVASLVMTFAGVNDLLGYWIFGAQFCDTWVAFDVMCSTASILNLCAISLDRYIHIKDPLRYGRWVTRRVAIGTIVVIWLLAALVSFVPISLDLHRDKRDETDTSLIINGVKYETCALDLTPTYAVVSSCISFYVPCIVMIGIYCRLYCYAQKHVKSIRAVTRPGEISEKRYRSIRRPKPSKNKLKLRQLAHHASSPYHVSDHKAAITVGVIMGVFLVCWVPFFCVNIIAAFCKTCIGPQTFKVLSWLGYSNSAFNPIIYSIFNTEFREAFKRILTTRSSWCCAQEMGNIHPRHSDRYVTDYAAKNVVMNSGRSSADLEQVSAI
# Test: CRELuc reporter dose-response in HEK293 cells stably expressing AaDOP1
# Type: cell-based
# Details: not given
row,Compound,EC50
1,"NC[C@H](O)c1ccc(O)c(O)c1 [Compound 106, L(-)-Norepinephrine bitartrate]",760 ± 180 nM
2,"NCCc1ccc(O)cc1 [Compound 1162, 4-Hydroxyphenethylamine hydrochloride]",≥ 10000 nM

# Same assay, conditions: HEK293 cells stably expressing CRELuc reporter and AaDOP1; read-out: EC50 values AaDOP1
row,Compound,EC50
1,Oc1cc2c(cc1O)C(c1ccccc1)CNCC2 (stereo not shown) [SKF 38393],310 ± 46 nM
2,"Oc1cc2c(cc1O)[C@H]1c3ccccc3CN[C@@H]1CC2 (racemic) [Dihydrexidine, dihydrexidine]",6.9 ± 1.5 nM

# Same assay, conditions: HEK293 cells stably expressing CRELuc reporter and AaDOP1; ≥10 µM considered lacking intrinsic activity; read-out: EC50 values AaDOP1
row,Compound,EC50
1,"NCCc1c[nH]cn1 [Compound 596, Histamine dihydrochloride]",≥ 10000 nM
